Tests used:
Conditions in all cases: Compound Concentration 10.0 uM, Hit No
[1] = target: DNA-3-methyladenine glycosylase (Homo sapiens) (UniProt P29372);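 further: enzyme assay where MPG cuts a quenched duplex DNA oligonucleotide probe, paired with APE1 for strand incision and turnover, read as fluorescence at 594 nm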
Description: Inhibition of MPG by quantifying inhibition of MPG-mediated cleavage and dissociation of quenched duplex DNA oligonucleotides, measured as fluorescence at 594 nm. To generate a functional strand incision and increase turn-over this assay is coupled to APE1.

[2] = target: T1, Adenine DNA glycosylase (Homo sapiens) (UniProt Q9UIF7);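 further: human MUTYH activity read as 594 nm fluorescence from cleavage and release of a quenched DNA duplex, coupled with APE1 for strand incision, lower signal meaning inhibition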
T1 sequence (whole entry): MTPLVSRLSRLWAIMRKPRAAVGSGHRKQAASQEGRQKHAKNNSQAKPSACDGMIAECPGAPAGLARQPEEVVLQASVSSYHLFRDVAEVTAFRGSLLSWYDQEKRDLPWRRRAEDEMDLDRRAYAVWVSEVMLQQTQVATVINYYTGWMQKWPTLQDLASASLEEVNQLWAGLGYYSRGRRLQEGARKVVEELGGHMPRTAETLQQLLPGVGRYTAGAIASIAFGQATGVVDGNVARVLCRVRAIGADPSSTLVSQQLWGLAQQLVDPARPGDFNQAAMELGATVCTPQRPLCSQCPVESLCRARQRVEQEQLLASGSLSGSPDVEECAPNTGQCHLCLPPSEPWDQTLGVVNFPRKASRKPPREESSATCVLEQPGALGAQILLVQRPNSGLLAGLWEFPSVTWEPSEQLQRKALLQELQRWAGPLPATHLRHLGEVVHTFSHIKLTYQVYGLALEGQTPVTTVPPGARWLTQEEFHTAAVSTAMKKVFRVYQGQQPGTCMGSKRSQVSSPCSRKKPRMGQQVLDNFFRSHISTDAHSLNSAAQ
Description: Inhibition of MUTYH by quantifying inhibition of MUTYH-mediated cleavage and dissociation of quenched duplex DNA oligonucleotides, measured as fluorescence at 594 nm. To generate a functional strand incision and increase turn-over this assay is coupled to APE1.

[3] = target: Endonuclease 8-like 1 (Homo sapiens) (UniProt Q96FI4);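 further: fluorescence at 594 nm from quenched duplex DNA oligonucleotides released by NEIL1 cleavage and strand separation, reported as reduction of this enzyme activity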
Description: Inhibition of NEIL1 by quantifying inhibition of NEIL1-mediated cleavage and dissociation of quenched duplex DNA oligonucleotides, measured as fluorescence at 594 nm.

[4] = target: T2, Endonuclease 8-like 2 (Homo sapiens) (UniProt Q969S2);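 further: fluorescence at 594 nm reports NEIL2 cutting and release of a quenched double-stranded DNA oligo substrate, reduced signal read as inhibition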
T2 sequence (whole entry): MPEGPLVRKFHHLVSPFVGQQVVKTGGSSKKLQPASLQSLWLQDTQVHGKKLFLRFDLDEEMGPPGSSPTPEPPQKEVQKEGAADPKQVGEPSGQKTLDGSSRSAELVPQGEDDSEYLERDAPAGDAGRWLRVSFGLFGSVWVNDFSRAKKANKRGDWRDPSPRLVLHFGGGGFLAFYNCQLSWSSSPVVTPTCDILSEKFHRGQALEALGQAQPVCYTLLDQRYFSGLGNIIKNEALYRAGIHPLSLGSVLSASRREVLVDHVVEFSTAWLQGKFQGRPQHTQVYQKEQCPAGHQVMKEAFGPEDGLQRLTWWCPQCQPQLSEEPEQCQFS
Description: Inhibition of NEIL2 by quantifying inhibition of NEIL2-mediated cleavage and dissociation of quenched duplex DNA oligonucleotides, measured as fluorescence at 594 nm.

[5] = target: N-glycosylase/DNA lyase (Homo sapiens) (UniProt O15527);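 further: OGG1 cleavage of a quenched duplex DNA oligonucleotide, coupled to APE1 for strand incision, read as fluorescence at 594 nm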
Description: Inhibition of OGG1 by quantifying inhibition of OGG1-mediated cleavage and dissociation of quenched duplex DNA oligonucleotides, measured as fluorescence at 594 nm. To generate a functional strand incision and increase turn-over this assay is coupled to APE1.

[6] = target: G/T mismatch-specific thymine DNA glycosylase (Homo sapiens) (UniProt Q13569);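 further: human TDG cleavage of quenched duplex DNA oligonucleotides coupled to APE1, strand release read as fluorescence at 594 nm, inhibition of TDG activity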
Description: Inhibition of TDG by quantifying inhibition of TDG-mediated cleavage and dissociation of quenched duplex DNA oligonucleotides, measured as fluorescence at 594 nm. To generate a functional strand incision and increase turn-over this assay is coupled to APE1.

[7] = target: T3, Single-strand selective monofunctional uracil DNA glycosylase (Homo sapiens) (UniProt Q53HV7);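 further: enzymatic SMUG1 assay coupled with APE1, reading fluorescence at 594 nm released when a quenched double-stranded DNA oligonucleotide substrate is cleaved and separated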
T3 sequence (whole entry): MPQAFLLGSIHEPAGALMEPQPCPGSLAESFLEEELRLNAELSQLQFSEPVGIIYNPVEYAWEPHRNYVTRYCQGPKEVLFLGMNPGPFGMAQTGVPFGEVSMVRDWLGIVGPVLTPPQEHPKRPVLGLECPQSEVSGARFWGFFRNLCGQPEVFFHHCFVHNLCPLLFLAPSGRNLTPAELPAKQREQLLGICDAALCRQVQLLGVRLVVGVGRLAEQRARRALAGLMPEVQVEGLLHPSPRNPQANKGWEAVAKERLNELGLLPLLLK
Description: Inhibition of SMUG1 by quantifying inhibition of SMUG1-mediated cleavage and dissociation of quenched duplex DNA oligonucleotides, measured as fluorescence at 594 nm. To generate a functional strand incision and increase turn-over this assay is coupled to APE1.

[8] = target: Uracil-DNA glycosylase (Homo sapiens) (UniProt P13051);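 further: UNG excision on a quenched double-stranded DNA oligo probe, with APE1 added for strand incision and turnover, read as fluorescence at 594 nm as strands separate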
Description: Inhibition of UNG by quantifying inhibition of UNG-mediated cleavage and dissociation of quenched duplex DNA oligonucleotides, measured as fluorescence at 594 nm. To generate a functional strand incision and increase turn-over this assay is coupled to APE1.

[9] = target: Methyl-CpG-binding domain protein 4 (Homo sapiens) (UniProt O95243);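 further: MBD4 activity read as fluorescence at 594 nm from cleavage and release of a quenched duplex DNA oligonucleotide, with APE1 coupled to incise the strand and raise turnover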
Description: Inhibition of MBD4 by quantifying inhibition of MBD4-mediated cleavage and dissociation of quenched duplex DNA oligonucleotides, measured as fluorescence at 594 nm. To generate a functional strand incision and increase turn-over this assay is coupled to APE1.

[10] = target: T4, Endonuclease III-like protein 1 (Homo sapiens) (UniProt P78549);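 further: enzyme assay tracking NTHL1 cutting and release of a quenched double-stranded DNA oligo substrate, read as fluorescence at 594 nm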
T4 sequence (whole entry): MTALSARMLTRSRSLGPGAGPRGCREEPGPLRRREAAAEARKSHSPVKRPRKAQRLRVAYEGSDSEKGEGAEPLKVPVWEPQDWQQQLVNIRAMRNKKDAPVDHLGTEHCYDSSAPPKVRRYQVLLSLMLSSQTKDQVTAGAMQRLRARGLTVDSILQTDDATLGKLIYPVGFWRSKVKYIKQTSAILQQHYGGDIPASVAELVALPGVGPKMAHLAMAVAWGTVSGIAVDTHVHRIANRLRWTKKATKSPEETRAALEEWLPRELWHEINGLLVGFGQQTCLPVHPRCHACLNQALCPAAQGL
Description: Inhibition of NTHL1 by quantifying inhibition of NTHL1-mediated cleavage and dissociation of quenched duplex DNA oligonucleotides, measured as fluorescence at 594 nm.

Chain of N-glycosylase/DNA lyase (Homo sapiens) (O15527 whole entry): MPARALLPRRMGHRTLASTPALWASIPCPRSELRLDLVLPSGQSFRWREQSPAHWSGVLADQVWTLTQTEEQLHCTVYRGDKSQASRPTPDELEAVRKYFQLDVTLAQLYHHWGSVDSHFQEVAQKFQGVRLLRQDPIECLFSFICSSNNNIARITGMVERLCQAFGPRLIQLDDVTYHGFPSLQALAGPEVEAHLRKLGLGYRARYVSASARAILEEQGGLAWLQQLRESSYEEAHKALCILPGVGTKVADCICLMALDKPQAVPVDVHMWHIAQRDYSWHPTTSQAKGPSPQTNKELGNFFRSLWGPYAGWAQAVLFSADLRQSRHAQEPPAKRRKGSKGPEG
Chain of Methyl-CpG-binding domain protein 4 (Homo sapiens) (O95243 whole entry, the tested form may be a part): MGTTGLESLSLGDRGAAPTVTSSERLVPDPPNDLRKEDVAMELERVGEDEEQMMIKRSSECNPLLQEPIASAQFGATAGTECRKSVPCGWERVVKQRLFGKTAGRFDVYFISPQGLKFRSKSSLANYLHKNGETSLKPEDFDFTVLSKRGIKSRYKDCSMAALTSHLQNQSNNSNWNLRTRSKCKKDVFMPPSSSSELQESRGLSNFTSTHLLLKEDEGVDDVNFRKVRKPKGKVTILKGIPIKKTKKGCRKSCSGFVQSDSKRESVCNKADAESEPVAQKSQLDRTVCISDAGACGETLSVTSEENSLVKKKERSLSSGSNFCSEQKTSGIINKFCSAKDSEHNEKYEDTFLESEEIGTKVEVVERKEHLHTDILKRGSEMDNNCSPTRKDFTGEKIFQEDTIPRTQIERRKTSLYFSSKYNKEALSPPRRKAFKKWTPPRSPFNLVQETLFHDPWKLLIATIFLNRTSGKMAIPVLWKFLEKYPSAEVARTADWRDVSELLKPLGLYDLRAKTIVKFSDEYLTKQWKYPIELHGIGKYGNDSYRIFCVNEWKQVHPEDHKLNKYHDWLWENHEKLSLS
Chain of G/T mismatch-specific thymine DNA glycosylase (Homo sapiens) (Q13569 whole entry): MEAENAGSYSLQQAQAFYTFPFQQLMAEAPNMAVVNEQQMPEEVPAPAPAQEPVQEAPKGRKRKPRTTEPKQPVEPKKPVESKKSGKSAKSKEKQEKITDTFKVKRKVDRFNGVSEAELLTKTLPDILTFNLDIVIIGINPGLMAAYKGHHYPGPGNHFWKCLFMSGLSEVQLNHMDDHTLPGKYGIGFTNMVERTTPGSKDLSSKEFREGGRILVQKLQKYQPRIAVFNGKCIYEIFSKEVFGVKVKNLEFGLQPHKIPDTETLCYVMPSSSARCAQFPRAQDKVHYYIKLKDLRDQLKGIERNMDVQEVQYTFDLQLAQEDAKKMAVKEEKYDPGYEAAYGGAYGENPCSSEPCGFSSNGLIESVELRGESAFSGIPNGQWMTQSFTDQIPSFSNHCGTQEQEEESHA
Chain of DNA-3-methyladenine glycosylase (Homo sapiens) (P29372 whole entry): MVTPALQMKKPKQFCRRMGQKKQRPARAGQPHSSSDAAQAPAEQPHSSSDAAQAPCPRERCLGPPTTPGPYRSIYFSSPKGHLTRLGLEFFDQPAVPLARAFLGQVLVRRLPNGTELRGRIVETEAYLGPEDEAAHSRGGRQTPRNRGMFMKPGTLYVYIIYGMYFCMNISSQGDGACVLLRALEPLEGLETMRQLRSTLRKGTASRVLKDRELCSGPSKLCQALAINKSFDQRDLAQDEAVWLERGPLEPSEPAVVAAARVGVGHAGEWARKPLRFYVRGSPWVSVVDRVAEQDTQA
Chain of Endonuclease 8-like 1 (Homo sapiens) (Q96FI4 whole entry): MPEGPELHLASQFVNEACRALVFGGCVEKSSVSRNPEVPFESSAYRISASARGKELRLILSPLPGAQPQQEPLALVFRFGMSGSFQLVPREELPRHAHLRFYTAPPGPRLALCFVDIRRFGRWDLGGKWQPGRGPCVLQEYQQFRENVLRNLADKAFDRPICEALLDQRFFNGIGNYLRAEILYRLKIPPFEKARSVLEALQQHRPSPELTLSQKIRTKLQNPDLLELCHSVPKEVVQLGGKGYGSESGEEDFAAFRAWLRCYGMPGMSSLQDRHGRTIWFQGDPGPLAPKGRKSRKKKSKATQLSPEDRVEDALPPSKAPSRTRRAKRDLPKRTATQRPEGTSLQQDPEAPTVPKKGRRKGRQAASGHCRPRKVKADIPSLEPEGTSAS
Chain of Uracil-DNA glycosylase (Homo sapiens) (P13051 whole entry, the tested form may be a part): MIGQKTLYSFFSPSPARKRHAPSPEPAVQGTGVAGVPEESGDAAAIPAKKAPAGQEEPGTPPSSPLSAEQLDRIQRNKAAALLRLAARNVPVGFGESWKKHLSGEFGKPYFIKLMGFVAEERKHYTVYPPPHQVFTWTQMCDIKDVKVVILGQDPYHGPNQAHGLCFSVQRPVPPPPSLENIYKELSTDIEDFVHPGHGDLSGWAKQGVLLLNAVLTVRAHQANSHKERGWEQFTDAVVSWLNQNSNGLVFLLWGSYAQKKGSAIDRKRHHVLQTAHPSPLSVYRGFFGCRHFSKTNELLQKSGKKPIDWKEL

Compound | inhibition [1] [%] | inhibition [2] [%] | inhibition [3] [%] | inhibition [4] [%] | inhibition [5] [%] | inhibition [6] [%] | inhibition [7] [%] | inhibition [8] [%] | inhibition [9] [%] | inhibition [10] [%]
CC(C)(C)c1ccc(S(=O)(=O)Nc2ccc(Cl)cc2C(=O)c2cc[n+]([O-])cc2)cc1 | 1.3 | -4.97 | 3.35 | -0.483 | 1.79 | -0.448 |  |  |  | 
Nc1nc(NCCc2ccc(O)cc2)nc2nc(-c3ccco3)nn12 | -1.9 | 18.6 | -1.69 | 6 | -7.81 | -0.119 | -6.72 |  |  | 
O=c1ccn([C@@H]2O[C@H](COP(=O)(O)OP(=O)(O)O)[C@@H](O)[C@H]2O)c(=O)[nH]1 | -2.06 | 23.4 | -1.39 | 2.51 | -4.12 | 19.1 |  | -4.06 |  | 
Cc1cccc(NC(=O)N[C@@H]2N=C(c3ccccc3)c3ccccc3N(C)C2=O)c1 | 17 | 10.5 |  | -1.73 | -6.8 | 12.3 | -5.61 |  |  | 
Clc1cccc(Cl)c1NC1=NCCN1 | -5.72 | 14.7 | -1.69 | 1.76 | -5.49 | 0.825 |  |  |  | 
Cc1cnc(CNCC2(F)CCN(C(=O)c3ccc(F)c(Cl)c3)CC2)nc1 | 6.04 | -3.43 | 2.32 | 7.5 | -1.55 | 6.93 | -8.17 | -8.07 |  | 
COCCCN1CCC(NC(=O)c2cc(Cl)c(N)c3c2OCC3)CC1 | 8.09 | 17.3 | -6.73 | -0.983 | -3.13 | 2.17 |  |  |  | 
Clc1ccc2nsnc2c1NC1=NCCN1 | 6.04 | -8.81 | -3.76 | 0.515 | -1.01 | 12 | 2.87 | -7.76 |  | 
Clc1cccc(-n2nnnc2NCc2ccccc2Oc2ccccn2)c1Cl | 12.9 |  | 4.75 | -1.88 | -2.45 | 0.87 | 6.2 | -1.01 | 4.1 | 4.7
COc1ccc(Cl)cc1[C@]1(F)C(=O)Nc2cc(C(F)(F)F)ccc21 | -5.04 |  | 3.12 | 17 | 4.52 | -9.73 | 8.52 | -2.84 | -4.08 | 6.35
Cc1cc(C(C)(C)C)c(O)c(C)c1CC1=NCCN1 | 3.54 |  | 8.25 | 19 | -1.82 | 10.8 | -3.38 | -7.32 | -7.05 | 1.92
c1ccc(NCc2ccc(CNc3ccccn3)cc2)nc1 | -3.14 | -5.87 | 3.5 | -4.48 | -3.65 | 13.4 |  |  |  | 
COC(=O)C1=C(C)NC(C)=C(C(=O)OC(C)C)C1c1cccc2nonc12 (stereo unspecified) | -0.967 |  | 1.94 | -0.86 | -6.65 | 5.72 | 0.608 | -3.24 | 3.95 | 15.4
